In brackets after ≈: the same amount, converted by molar mass. Counter-ions that a name gives are not always drawn.

In data set [1] the test system is THP-1 cells. On the procedure: (§1) THP-1 cells were treated with phorbol 12-myristate 13-acetate (PMA; Sigma-Aldrich, USA) at a final concentration of 50 nM for 40 hours. Infection with M. abscessus containing pTEC15 green fluorescence or luciferase was performed at 37° C. in the presence of 5% CO2 at a multiplicity of […] (MOI) of 2:1 for 3 hours. After extensive washing with PBS, the cells were incubated in a culture medium containing […] of gentamicin for 30 minutes and washed again with PBS. […] Macrophages were stained with SYTO 60 (Invitrogen, USA) dye at a final concentration of 5 μM at 37° C. in a 5% CO2 atmosphere for 30 minutes. On the day 4, luminescence was measured with a Synergy H1 microplate reader (Bio-Tek, USA). The fluorescence microscopic images of living cells were captured with a Lionheart™ FX automated microscope (BIO-Tek, USA). The Gen5™ 3.05 software object feature was available for identification of the cells in the imaging field.
(§2) The use of a double read assay results in dose-response curves for both inhibition for M. abscessus and cytotoxicity to THP-1 cells as determined in a same experiment. […] The cytotoxicity was determined using a SYTO 60 probe.

Data set [2] deals with human colonic epithelial cells (HCT-8). Put plainly: WST-8 cell viability and LDH cytotoxicity assay. The settings on record: HCT-8, 24 hours, FIG. 7. It is filed as cell-based. As for the experimental part: (§3) THP-1 (ATCC TIB-202) and HCT-8 (ATCC CCL-244) cells were measured in regards to cell viability and cytotoxicity of CC using a WST-8 cell viability assay kit (MediFab, S. Korea) and a CytoTox 96® non-radioactive cytotoxicity assay kit (Promega, Madison, WI, USA), respectively. Differentiated THP-1 cells (1.0×10^5 cells/well) and HCT-8 cells (2.0×10^4 cells/well) were placed in 96-well plates and incubated at 37° C. for 24 hours. Here, CC was added to the cells at different concentrations. For cell viability assay, 10 μL of the reagent (10% medium volume) was added to each well, followed by incubation for 4 hours. The resulting color was measured at 450 nm. For LDH cytotoxicity assay, 50 μL of a reagent for LDH detection was added to each well, and incubation was performed in the dark for 30 minutes. The resulting color was measured at 490 nm. In this regard, the cells treated with 1% Triton™ X-100 were used as a positive control, and those treated with DMSO were all tested negative in both experiments.

For data set [3], the system named is THP-1 cells. Put plainly: WST-8 cell viability and LDH cytotoxicity assay. To be noted: THP-1, 24 hours, FIG. 7. It is filed as cell-based, human. On the procedure: as §3
Data set [4] deals with M. abscessus (ATCC 19997). Put plainly: Resazurin (REMA) broth microdilution dose-response, aerobic culture. It is filed as cell-based, Mycobacterium abscessus.
Description: Three strains of M. abscessus (ATCC 19997), M. avium (ATCC 25291) and M. intracellulare (ATCC 13950) were cultured at 37° C. in Middlebrook 7H9 broth (BD, 27130) supplemented with 10% OADC (BD, 212240), 0.5% glycerol and 0.05% Tween-80.
The minimum inhibitory concentration (MIC) was determined according to the guideline by the CLSI (Clinical & Laboratory Standards Institute). The CLSI broth microdilution method recommended by MH was used with an inoculum having an OD of 0.001/ml in the exponential phase of growth.
Then, incubation was carried out at 37° C. for 3 hours, followed by adding 40 mL of 0.025% resazurin. After incubation overnight, the fluorescence of resorufin (metabolite resazurin) was measured with a Synergy H1 Hybrid Multi-Mode Reader (Bio-Tek, VT, USA). IC50 values were calculated from raw fluorescence data using Prism 5.0 software (GraphPad Inc., La Jolla, CA, USA). Experiments were performed in triplicates.
Data set [5] deals with clarithromycin-resistant M. abscessus mutants (M. abscessus CLR-R). Put plainly: REMA dose-response against clarithromycin-resistant mutants. The settings on record: mutant produced in presence of 100 mg/L CLR, FIG. 3. It is filed as cell-based, Mycobacterium abscessus. As for the experimental part:
(§4) Experiments were performed in triplicates.
It was also tested to determine whether CC inhibits the growth of the drug-resistant strains produced in the present invention in the presence of high concentration (100 mg/L) CLR used for therapy against M. abscessus. […] Accordingly, CC is considered as an active drug for the treatment of CLR-resistant M. abscessus.

In data set [6] the test system is M. abscessus (ATCC 19997) under anaerobic conditions. Nature of the data set: Resazurin dose-response under anaerobic non-replicating culture. It is filed as cell-based, Mycobacterium abscessus. On the procedure:
In order to determine the antibiotic ability against M. abscessus (ATCC 19997) under anaerobic conditions, a bacterial culture (5×10^6 bacteria/mL) was inoculated into 5 mL of 7H9 broth (BD, 271310) supplemented with 10% OADC. The bacterial culture was placed in an anaerobic jar (BD BBLIM GasPAK™ Jar; Franklin Lakes, NJ, USA). Here, a BD BBLIM GasPAK™ anaerobic indicator (methylene blue for monitoring oxygen depletion) was used. The bacteria were cultured in cation-adjusted Mueller-Hinton broth (MH; Sigma-Aldrich, 90922) for drug susceptibility testing.
as §4
A comparison was made between the growth rates under aerobic, anaerobic and restored aerobic conditions in a same culture medium.

In data set [7] the test system is M. abscessus in biofilm culture. Put plainly: Biofilm assay (Calgary Biofilm Device, MBEC Assay). It is filed as cell-based, Mycobacterium abscessus. As for the experimental part:
The first biofilm assay system was the Calgary Biofilm Device used by Bardouniotis et al. to evaluate the bactericidal activity or minimum biofilm eradication concentration (MBEC) of a biocidal active substance against Mycobacterium phlei. In the present invention, MBEC Assay® (Innovotech, Edmonton, Canada) for MBEC measurement was used. Biofilm formation was performed as follows. […] Then, the 96-well microliter plate was covered with a 96-peg lid and incubated for 4 days. After washing, the bacteria remaining on the biofilms were removed from the wells by ultrasonication in the medium. Finally, after incubation, the adherent bacteria remaining on the biofilms with or without antibiotics were quantified with resazurin.

The subject of data set [8] is M. abscessus (lux) in THP-1 cells. It is filed as cell-based, Mycobacterium abscessus. To be noted: THP-1 infection, data not shown. On the procedure: as §1, §2
For data set [9], the system named is M. abscessus (ATCC 19997). The settings on record: known value used for selecting resistant mutants; cited from earlier work.
In a further data set the test system is biofilm-forming microbes. To be noted: Munoz-Egea et al.; cited from earlier work.

Consider `CCN(CC)CCOc1ccc(C(=C(Cl)c2ccccc2)c2ccccc2)cc1` [CC, clomiphene citrate], for which the “cytotoxicity to THP-1 cells” value in the data set with THP-1 cells [1] is given as “without cytotoxicity”. The “effect on cell viability” value (in data set [2]; in the data set on THP-1 cells [3]) was “no harm on the viability” throughout.
As for `CC[C@H]1OC(=O)[C@H](C)[C@@H](O[C@H]2C[C@@](C)(OC)[C@@H](O)[C@H](C)O2)[C@H](C)[C@@H](O[C@@H]2O[C@H](C)C[C@H](N(C)C)[C@H]2O)[C@](C)(OC)C[C@@H](C)C(=O)[C@H](C)[C@@H](O)[C@]1(C)O` [CLR, clarithromycin], in data set [4], the “general MIC” value worked out at 0.46 µg. In addition, the concentration for half-maximal inhibition (IC50) in data set [4] (Mycobacteroides abscessus, ATCC19997, aerobic culture conditions, FIG. 4) is 0.046 mg/L (≈ 0.0615 µM); in data set [6] (Mycobacteroides abscessus, ATCC19997, anaerobic culture conditions, FIG. 4), 0.0778 mg/L (≈ 0.104 µM); in data set [7] (Mycobacteroides abscessus, biofilm culture, FIG. 4), greater than 100 mg/L. Moreover, in data set [5], the “resistance of produced mutant to CLR” value is listed as “high drug resistance”. Besides, in data set [6] (anaerobic vs aerobic culture), the “shift of the IC50 value, anaerobic versus aerobic” value was determined as 2 fold. Also, the “MBEC relative to general MIC” value in [7] (MBEC vs MIC) is given as 2,000 fold. Besides, in data set [7] (biofilm), the “MBEC for M. abscessus” value was “above 100 μg”. For the same compound, the “effect on intracellular bacterial replication” value in [8] is recorded as “prevented bacterial replication”. In addition, the “known MIC value” in data set [9] was 0.1 mg/L. Besides, in the data set on biofilm-forming microbes, the “MBEC relative to MIC” value was 100,000 fold.
